The values that follow come from PubChem BioAssay (NCI).

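1) Cells in 96-well plates. 2) Compound, 48 h, 5 concentrations. 3) Linear interpolation between surrounding doses. 4) Unreached endpoint = highest concentration. GI50: concentration for 50% inhibition of growth. TGI marks complete inhibition of growth.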

Among the test systems are HOP-18 NSCLC; DMS 273 small cell lung; KM20L2 colon; DLD-1 colon; LXFL 529 NSCLC; XF 498 CNS; PC-3 prostate; DU-145 prostate; MDA-MB-231 breast; MDA-MB-435.
Test in all cases: NCI anticancer screen, dose series, 48 h

For `COc1cc(CC2C(=O)OCC2[C@@H](OC(C)=O)c2ccc3c(c2)OCO3)c(Br)c(OC)c1OC` (some centres not stated), the TGI in the test with HOP-18 NSCLC, in the test with DMS 273 small cell lung, in the test with KM20L2 colon, in the test with DLD-1 colon, in the test with LXFL 529 NSCLC and in the test with XF 498 CNS was over 100 µM in each case.

Turning to `O=c1sc(-c2nc3ccccc3[nH]2)c(/N=C/c2ccccc2)n1-c1ccccc1`, the TGI with HOP-18 NSCLC was over 100 µM; in the test with DMS 273 small cell lung, over 100 µM; in the test on DLD-1 colon, over 100 µM; in the test on LXFL 529 NSCLC, over 100 µM; in the test with XF 498 CNS, 54.7 µM.

Take `c1cnc2nc3n(c2c1)CSC3`: the TGI in the test on KM20L2 colon, in the test on DLD-1 colon, in the test with LXFL 529 NSCLC and in the test on XF 498 CNS was over 100 µM throughout.

As to `COC(=O)C1=Cc2cn(S(=O)(=O)c3ccc(C)cc3)c3cccc(c23)C(C=C(C)C)N1C(C)=O` (configuration not stated), the TGI in the test on HOP-18 NSCLC, in the test on DMS 273 small cell lung, with KM20L2 colon, with DLD-1 colon, in the test with LXFL 529 NSCLC and in the test with XF 498 CNS was over 100 µM throughout.

In the case of `O=Cc1cn(S(=O)(=O)c2ccccc2)c2ccccc12`, the TGI in the test with HOP-18 NSCLC, in the test on KM20L2 colon, in the test with DLD-1 colon, in the test on LXFL 529 NSCLC and in the test on XF 498 CNS was over 100 µM in each case.

As for `N/C(=N/N=C/c1cccc(F)c1)NO`, the TGI in the test on HOP-18 NSCLC, in the test on DMS 273 small cell lung, in the test on KM20L2 colon, in the test with DLD-1 colon, in the test with LXFL 529 NSCLC and in the test on XF 498 CNS was over 100 µM in each case.

Turning to `CN(CC1NCCCC1O)C12CC3CC(CC(C3)C1)C2` (configuration not stated), the TGI in the test with HOP-18 NSCLC, with DMS 273 small cell lung, in the test with KM20L2 colon, in the test on DLD-1 colon, in the test with LXFL 529 NSCLC and in the test with XF 498 CNS was over 100 µM in each case.

Consider `O=C1CCCCCCCCCCOC(=O)CCCCCCCCCCO1`, for which the TGI in the test on HOP-18 NSCLC, in the test with DMS 273 small cell lung, with DLD-1 colon and in the test on LXFL 529 NSCLC was over 100 µM throughout.

In the case of `COC(=O)c1cc2c(nc1C)-c1ccccc1OS2(=O)=O`, the TGI with DMS 273 small cell lung, with KM20L2 colon, in the test with DLD-1 colon, with LXFL 529 NSCLC and with XF 498 CNS was over 100 µM throughout.

Consider `CSCC(COC(C)=O)(CSC)c1ccncc1`, for which the TGI in the test on DMS 273 small cell lung, in the test with KM20L2 colon and in the test with LXFL 529 NSCLC was over 100 µM in each case.

Regarding `C=CCn1c(=O)c(C(=O)NC(=O)OCC)cn(C2CCCCC2)c1=O`, the TGI with HOP-18 NSCLC, in the test on DMS 273 small cell lung, in the test with KM20L2 colon, in the test with DLD-1 colon, in the test with LXFL 529 NSCLC and with XF 498 CNS was over 100 µM in each case.

In the case of `C=C1CCC2(C(C)=O)COC1(C)O2` (configuration not stated), the TGI in the test on HOP-18 NSCLC, with DMS 273 small cell lung, in the test with DLD-1 colon and with XF 498 CNS was over 100 µM throughout.

As to `Cc1cc(Cl)ccc1Nc1nc2c(s1)C(=O)c1ccccc1C2=O`, the TGI was 12.5 µM in the test on HOP-18 NSCLC; 8.05 µM with PC-3 prostate; 5.71 µM in the test with DMS 273 small cell lung; 39.4 µM in the test on KM20L2 colon; 12.5 µM in the test with DLD-1 colon; 12.8 µM in the test on LXFL 529 NSCLC. The figures for the TGI in the test with DU-145 prostate and in the test with MDA-MB-231 breast were 3.04 µM and 12.9 µM, respectively.

As for `[Au+].c1c[n-]cn1.c1ccc([PH+](c2ccccc2)c2ccccc2)cc1`, the GI50 with HOP-18 NSCLC is 2.08 µM; in the test with PC-3 prostate it was 4.28 µM; in the test with DMS 273 small cell lung it was 7.87 µM; in the test on KM20L2 colon it was 21.9 µM; in the test on LXFL 529 NSCLC, 1.59 µM; in the test with DU-145 prostate it was 17.2 µM. Moreover, in the test on MDA-MB-435, the GI50 was 5.17 µM. The TGI was 4.35 µM with HOP-18 NSCLC; 17.3 µM with PC-3 prostate; over 44 µM in the test on DMS 273 small cell lung; 58.3 µM in the test on KM20L2 colon; 2.95 µM in the test on LXFL 529 NSCLC; 36.5 µM with DU-145 prostate. This compound displayed a TGI in the test with MDA-MB-435 of 23.1 µM.

Turning to `O=c1[nH]c(-c2ccc([N+](=O)[O-])cc2)nc2ccc(Cl)cc12`, the TGI with DMS 273 small cell lung, in the test on KM20L2 colon and with LXFL 529 NSCLC was over 100 µM throughout.

For the compound `CCOC(=O)CP(=S)(S)c1ccccc1` (configuration not stated), the TGI in the test on DMS 273 small cell lung, in the test on KM20L2 colon, in the test with DLD-1 colon, in the test with LXFL 529 NSCLC and in the test on XF 498 CNS was over 100 µM throughout.

Take `c1ccc(N2N=NC3C4CC(C5c6ccccc6C45)C32)cc1` (configuration not stated): the TGI was over 100 µM in the test with DMS 273 small cell lung; over 100 µM with KM20L2 colon; over 100 µM in the test on DLD-1 colon; over 100 µM in the test on LXFL 529 NSCLC; 38.5 µM in the test with XF 498 CNS.

On to `O=C(CC(=O)N1N=C(c2ccccc2)C(N=Nc2ccccc2Cl)C1=O)Nc1ccccc1Cl` (configuration not stated), for which the TGI with DMS 273 small cell lung is over 100 µM; with KM20L2 colon, over 100 µM; with DLD-1 colon it was over 100 µM; in the test on LXFL 529 NSCLC, over 100 µM; in the test with XF 498 CNS it was 51.1 µM.

On to `Cc1cc(N(CCC#N)CCC#N)ccc1CC1N=C(c2ccccc2)OC1=O` (configuration not stated), for which the TGI in the test with DMS 273 small cell lung, in the test with KM20L2 colon, in the test on DLD-1 colon, in the test on LXFL 529 NSCLC and with XF 498 CNS was over 100 µM in each case.

For `CC(C)=Cc1cc(C(=O)NCCNC(=O)c2cc(C=C(C)C)nc(NC#N)n2)nc(NC#N)n1`, the TGI in the test with HOP-18 NSCLC, in the test with KM20L2 colon, with LXFL 529 NSCLC and in the test with XF 498 CNS was over 100 µM each time.

For `O=C(NC(Cc1ccccc1)C(=O)CCl)OCc1ccccc1` (configuration not stated), the TGI in the test on HOP-18 NSCLC came out at 24 µM; in the test on PC-3 prostate it was 20.3 µM; in the test on DMS 273 small cell lung, 16.4 µM; in the test on KM20L2 colon, 20.2 µM; in the test on DLD-1 colon it was 21.5 µM; in the test with LXFL 529 NSCLC, 13.9 µM. In addition, the TGI in the test on DU-145 prostate stood at 22.9 µM; in the test with MDA-MB-435, 14.3 µM; in the test on MDA-MB-231 breast, 20.7 µM. Besides, the GI50 is 6.13 µM in the test with PC-3 prostate, 10.9 µM with DU-145 prostate, 3.59 µM in the test with MDA-MB-435 and 7.02 µM with MDA-MB-231 breast.
